Patent publication US11767322B2 (BRISTOL-MYERS SQUIBB COMPANY, priority 2020, dated 2023)
Read-outs that look alike come from different tables or passages of the source.

Columns and labels:
[1] = molecular target: T1, His-GST-TVMV-hRIPK1(1-324) (Homo sapiens, UniProt Q13546); assay: biochemical; format: binding
T1 construct: The coding region of human RIPK1(1-324) flanked by NdeI site at 5′ end; made in house; host or cells: Spodoptera frugiperda Sf9 insect cells (baculovirus, Bac-to-Bac)
T1 sequence (Q13546 1-324): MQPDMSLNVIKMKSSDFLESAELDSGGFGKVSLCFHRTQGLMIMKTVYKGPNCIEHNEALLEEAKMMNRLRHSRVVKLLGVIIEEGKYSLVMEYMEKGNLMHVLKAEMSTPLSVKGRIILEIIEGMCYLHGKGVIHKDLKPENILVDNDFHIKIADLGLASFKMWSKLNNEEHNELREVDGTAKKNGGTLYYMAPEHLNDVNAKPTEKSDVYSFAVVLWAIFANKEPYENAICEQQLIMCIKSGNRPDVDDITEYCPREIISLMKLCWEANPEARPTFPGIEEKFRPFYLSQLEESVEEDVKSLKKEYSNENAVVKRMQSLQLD

[2] = system: MLKL phosphorylation in HT29-L23 human colorectal adenocarcinoma cells; assay: MLKL phosphorylation high-content assay; format: cell-based
[3] = HTRF probe displacement, 1 h at rt, read-out: RIPK1 IC50
[4] = read-out: pMLKL IC50, HT29-L23 cells, necroptosis induced with TNFα, SMAC mimetic and Z-VAD, 6 h, maximal inhibition defined by Nec1s
[5] = Homo sapiens, 6 h, read-out: pMLKL IC50, HT29-L23 cells, necroptosis induced with TNFα, SMAC mimetic and Z-VAD, 6 h, maximal inhibition defined by Nec1s
[6] = Table 22, compounds of the present invention, read-out: RPIK1 IC50
[7] = Homo sapiens, read-out: pMLKL IC50, Table 22, compounds of the present invention

Compound	IC50 [1, 3] [nM]	IC50 [2, 4] [nM]	IC50 [2, 5] [nM]	IC50 [1, 6] [nM]	IC50 [2, 7] [nM]
[2H]C([2H])([2H])c1ccc(-c2ccn3nc(N)nc3c2)c(F)c1C(=O)NCC(F)(F)C(C)(O)c1ccc(Cl)cc1 (single isomer, unassigned) [Example 253, 3-(2-amino-[1,2,4]triazolo[1,5-a]pyridin-7-yl)-N-(3-(4-chlorophenyl)-2,2-difluoro-3-hydroxybutyl)-2-fluoro-6-(methyl-d3)benzamide]	2.4	1.2	–	–	–
Nc1nc2cc(-c3ccc(Cl)c(C(=O)NCC(F)(F)C(O)c4cccc(Cl)n4)c3F)ccn2n1 (single isomer, unassigned) [Example 263, 3-(2-amino-[1,2,4]triazolo[1,5-a]pyridin-7-yl)-6-chloro-N-(3-(6-chloropyridin-2-yl)-2,2-difluoro-3-hydroxypropyl)-2-fluorobenzamide]	21	48	–	–	–
Cc1ccc(-c2ccn3nc(N)nc3c2)c(F)c1C(=O)NCCC(C)(O)c1ccc(C#N)cc1 (centres unmarked) [Example 141, 3-{2-amino-[1,2,4]triazolo[1,5-a]pyridin-7-yl}-N-[3-(4-cyanophenyl)-3-hydroxybutyl]-2-fluoro-6-methylbenzamide]	22	–	38	–	–
Nc1nc2cc(-c3ccc(Cl)c(C(=O)NCC(F)(F)C(O)c4cccc(F)c4)c3F)ccn2n1 (single isomer, unassigned) [Example 168, 3-{2-amino-[1,2,4]triazolo[1,5-a]pyridin-7-yl}-6-chloro-N-[2,2-difluoro-3-(3-fluorophenyl)-3-hydroxypropyl]-2-fluorobenzamide]	0.3	1.1	–	–	–
[2H]C(O)(c1ccc(C(F)F)cc1)C(F)(F)CNC(=O)c1c(Cl)ccc(-c2ccn3nc(N)nc3c2)c1F (single isomer, unassigned) [Example 312, 3-(2-amino-[1,2,4]triazolo[1,5-a]pyridin-7-yl)-6-chloro-N-(3-(4-(difluoromethyl)phenyl)-2,2-difluoro-3-hydroxypropyl-3-d)-2-fluorobenzamide]	5.7	0.9	–	–	–
[2H]C([2H])([2H])OC(c1ccc(F)cc1)C(F)(F)CNC(=O)c1c(C)ccc(-c2ccn3nc(N)nc3c2)c1F (single isomer, unassigned) [Example 236, 3-(2-amino-[1,2,4]triazolo[1,5-a]pyridin-7-yl)-N-(2,2-difluoro-3-(4-fluorophenyl)-3-(methoxy-d3)propyl)-2-fluoro-6-methylbenzamide]	3.4	0.9	–	–	–
Nc1nc2cc(-c3ccc(Cl)c(C(=O)NCC(F)(F)C(O)c4ccc(C(F)(F)F)cc4F)c3F)ccn2n1 (centres unmarked) [Example 164, 3-(2-amino-[1,2,4]triazolo[1,5-a]pyridin-7-yl)-6-chloro-N-(2,2-difluoro-3-(2-fluoro-4-(trifluoromethyl)phenyl)-3-hydroxypropyl)-2-fluorobenzamide]	2.8	–	2.9	–	–
Nc1nc2cc(-c3ccc(Cl)c(C(=O)NCC(F)C(O)c4ccc(Cl)cc4)c3F)ccn2n1 (centres unmarked) [Example 128, 3-(2-amino-[1,2,4]triazolo[1,5-a]pyridin-7-yl)-6-chloro-N-(3-(4-chlorophenyl)-2-fluoro-3-hydroxypropyl)-2-fluorobenzamide]	5	–	1.2	–	–
Nc1nc2cc(-c3ccc(Cl)c(C(=O)NCCC(O)c4ccc(F)cc4)c3F)ccn2n1 (single isomer, unassigned) [Example 80, 3-(2-amino-[1,2,4]triazolo[1,5-a]pyridin-7-yl)-6-chloro-2-fluoro-N-(3-(4-fluorophenyl)-3-hydroxypropyl)benzamide]	9	–	27	–	–
[2H]C([2H])([2H])c1ccc(-c2ccn3nc(N)nc3c2)c(F)c1C(=O)NCC(F)(F)C(O)(c1ccc(F)cc1)C([2H])([2H])[2H] (single isomer, unassigned) [Example 244, 3-(2-amino-[1,2,4]triazolo[1,5-a]pyridin-7-yl)-N-(2,2-difluoro-3-(4-fluorophenyl)-3-hydroxybutyl-4,4,4-d3)-2-fluoro-6-(methyl-d3)benzamide]	2.7	1.2	–	–	–
Nc1nc2cc(-c3ccc(Cl)c(C(=O)NCC(F)(F)C(O)c4cccc(Cl)c4)c3F)ccn2n1 (centres unmarked) [Example 192, 3-(2-amino-[1,2,4]triazolo[1,5-a]pyridin-7-yl)-6-chloro-N-(3-(3-chlorophenyl)-2,2-difluoro-3-hydroxypropyl)-2-fluorobenzamide]	3.5	1.2	–	–	–
Nc1nc2cc(-c3ccc(Cl)c(C(=O)NCC(F)(F)Cc4ccc(F)cc4)c3F)ccn2n1 [Example 207, 3-(2-amino-[1,2,4]triazolo[1,5-a]pyridin-7-yl)-6-chloro-N-(2,2-difluoro-3-(4-fluorophenyl)propyl)-2-fluorobenzamide]	1.8	–	0.6	–	–
[2H]C([2H])([2H])c1ccc(C(O)C(F)(F)CNC(=O)c2c(C([2H])([2H])[2H])ccc(-c3ccn4nc(N)nc4c3)c2F)cc1 (single isomer, unassigned) [Example 200, 3-(2-amino-[1,2,4]triazolo[1,5-a]pyridin-7-yl)-N-(2,2-difluoro-3-hydroxy-3-(4-(methyl-d3)phenyl)propyl)-2-fluoro-6-(methyl-d3)benzamide]	4.7	–	0.8	–	–
Cc1ccc(-c2ccn3nc(N)nc3c2)c(F)c1C(=O)NCC(F)(F)C(OP(=O)(O)O)c1ccc(F)cc1 (racemic) [Example 161, 3-(3-(2-amino-[1,2,4]triazolo[1,5-a]pyridin-7-yl)-2-fluoro-6-methylbenzamido)-2,2-difluoro-1-(4-fluorophenyl)propyl dihydrogen phosphate, racemate]	> 15000	–	135	–	–
Cc1ccc(-c2ccn3nc(N)nc3c2)c(F)c1C(=O)NCCC(O)C1CCCCC1 (centres unmarked) [Example 40, 3-(2-amino-[1,2,4]triazolo[1,5-a]pyridin-7-yl)-N-(3-cyclohexyl-3-hydroxypropyl)-2-fluoro-6-methylbenzamide]	3.8	–	1.5	–	–
Nc1nc2cc(-c3ccc(Cl)c(C(=O)NCC(F)(F)C(O)c4cc(Cl)ccc4F)c3F)ccn2n1 (centres unmarked) [Example 181, 3-(2-amino-[1,2,4]triazolo[1,5-a]pryidin-7-yl)-6-chloro-N-(3-(5-chloro-2-fluorophenyl)-2,2-difluoro-3-hydroxypropyl)-2-fluorobenzamide]	1.7	0.3	–	–	–
Nc1nc2cc(-c3ccc(Cl)c(C(=O)NCC(F)(F)C(O)c4cccc(Cl)c4F)c3F)ccn2n1 (single isomer, unassigned) [Example 171, 3-(2-amino-[1,2,4]triazolo[1,5-a]pyridin-7-yl)-6-chloro-N-(3-(3-chloro-2-fluorophenyl)-2,2-difluoro-3-hydroxypropyl)-2-fluorobenzamide]	1.6	10	–	–	–
Cc1ccc(-c2ccn3nc(N)nc3c2)c(F)c1C(=O)NCCC(O)c1ccc(F)cc1 (centres unmarked) [Example 49, 3-(2-amino-[1,2,4]triazolo[1,5-a]pyridin-7-yl)-2-fluoro-N-(3-(4-fluorophenyl)-3-hydroxypropyl)-6-methylbenzamide]	2.5	–	2.6	2.5	2.6
Nc1nc2cc(-c3ccc(Cl)c(C(=O)NCC(F)(F)C4(c5ccc(F)cc5)COC4)c3F)ccn2n1 [Example 245, 3-(2-amino-[1,2,4]triazolo[1,5-a]pyridin-7-yl)-6-chloro-N-(2,2-difluoro-2-(3-(4-fluorophenyl)oxetan-3-yl)ethyl)-2-fluorobenzamide]	19	–	3.7	–	–
Cc1ccc(-c2ccn3nc(N)nc3c2)c(F)c1C(=O)NCC[C@H](O)c1ccc(Cl)cc1 [Example 151, (S)-3-(2-amino-[1,2,4]triazolo[1,5-a]pyridin-7-yl)-N-(3-(4-chlorophenyl)-3-hydroxypropyl)-2-fluoro-6-methylbenzamide]	2.8	–	0.8	3.5	0.8
Nc1nc2cc(-c3ccc(Cl)c(C(=O)NCCC(O)c4ccc(C(F)(F)F)cc4)c3F)ccn2n1 (single isomer, unassigned) [Example 85, 3-(2-amino-[1,2,4]triazolo[1,5-a]pyridin-7-yl)-6-chloro-2-fluoro-N-(3-hydroxy-3-(4-(trifluoromethyl)phenyl)propyl)benzamide]	2.1	0.5	–	–	–
Nc1nc2cc(-c3ccc(Cl)c(C(=O)NCC(F)C(O)c4ccc(Cl)cc4)c3F)ccn2n1 (centres unmarked) [Example 129, 3-(2-amino-[1,2,4]triazolo[1,5-a]pyridin-7-yl)-6-chloro-N-(3-(4-chlorophenyl)-2-fluoro-3-hydroxypropyl)-2-fluorobenzamide]	3.5	1.7	–	–	–
Cc1cccc(C(O)C(F)(F)CNC(=O)c2c(Cl)ccc(-c3ccn4nc(N)nc4c3)c2F)c1 (centres unmarked) [Example 175, 3-(2-amino-[1,2,4]triazolo[1,5-a]pyridin-7-yl)-6-chloro-N-(2,2-difluoro-3-hydroxy-3-(m-tolyl)propyl)-2-fluorobenzamide]	2.7	7.8	–	–	–
